From PubChem BioAssay (NCI) come the findings set out here.

Holding throughout (assay): inhibition of tumour cell growth, NCI panel, 48 h
The subject of experiment [1] is ACHN renal.
For experiment [2], the system named is BT-549 breast.
For experiment [3], the system named is COLO 205 colon.
The test system of experiment [4] is IGROV1 ovarian.
Experiment [5] relates to MDA-MB-231 breast.
Experiment [6] concerns SF-268 CNS.
For experiment [7], the system named is SK-MEL-2 melanoma.
Experiment [8] concerns SK-MEL-5 melanoma.
Experiment [9] relates to SNB-19 CNS.
Experiment [10] has as its system SNB-75 CNS.

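Each compound was tested at five concentrations against cells in 96-well plates for 48 hours. TGI denotes the concentration required for complete inhibition of growth.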 A value given as a limit tells only on which side of the number the result lay.

In the case of `CC1(C)CN=C(Nc2ccc(F)c(F)c2)S1`, the TGI in experiment [1], in experiment [2], in experiment [3], in experiment [4], in [5] and in experiment [6] was greater than 100 µM each time. Moreover, the TGI in [7], in [8], in experiment [9] and in [10] was greater than 100 µM in each case.
`CC(=O)Oc1c(C)c2c(c3ccccc13)OC(C)(C)C2`: the TGI in experiment [1] was 31 µM; in experiment [2] it was 39.4 µM; in experiment [3], 38.5 µM; in experiment [4], 30.9 µM; in experiment [5], 48.6 µM; in experiment [6], 28.8 µM. Moreover, the TGI in experiment [7] came out at 34 µM; in [8] it was 22.9 µM; in experiment [9] it was 69.7 µM; in experiment [10], 33.1 µM.
Consider `NC(=O)C(Nc1ccc(Cl)cc1)c1cc2cc(Br)ccc2nc1Cl` (stereo not given), for which the TGI in experiment [1], in experiment [2], in experiment [3], in [4], in [5] and in [6] was greater than 50 µM throughout. The TGI in experiment [7], in [8], in experiment [9] and in experiment [10] was greater than 50 µM throughout.
Turning to `CCN(CC)COC(=S)S`, the TGI in experiment [1], in experiment [2], in [3], in experiment [4], in experiment [5] and in experiment [6] was greater than 100 µM each time. In addition, the TGI in experiment [7] is 57 µM; in experiment [8], greater than 100 µM; in experiment [9], greater than 100 µM; in experiment [10], greater than 90.2 µM.
Consider `Oc1ccc(-c2cn3cc(C(F)(F)F)ccc3n2)cc1`, for which the TGI in experiment [1], in experiment [2], in experiment [3], in experiment [4], in experiment [5] and in [6] was greater than 100 µM each time. Moreover, the TGI in experiment [7], in experiment [8], in [9] and in [10] was greater than 100 µM throughout.
Take `CN(C)Cc1cc(N=Nc2ccc(Cl)cc2)ccc1O`: the TGI in experiment [1] was determined as 29.3 µM; in [2] it was 26.8 µM; in experiment [3], 13.8 µM; in [4], 32.3 µM; in [5], 32.2 µM; in experiment [6], 34.4 µM. Moreover, the TGI in experiment [7] came out at 38.1 µM; in experiment [8], 27.6 µM; in experiment [9], 34.1 µM; in experiment [10], 28.8 µM.
On to `OC(c1ccccc1)C(F)(F)c1nc2ccccc2o1` (stereo not given), for which the TGI in experiment [1], in experiment [2], in [3], in experiment [4], in [5] and in experiment [6] was greater than 100 µM throughout. Also, the TGI in experiment [7], in [8], in experiment [9] and in experiment [10] was greater than 100 µM each time.
With `CC1OC(O[C@H]2CC[C@]3(C=O)[C@H]4CC[C@]5(C)[C@H](C6=CC(=O)OC6)CC[C@]5(O)[C@@H]4C=C[C@]3(O)C2)CC(O)C1O` (stereo not given in full), the TGI in [1] worked out at 0.41 µM; in experiment [2], 0.608 µM; in [3] it was 1.91 µM; in experiment [4] it was 4.5 µM; in experiment [5], 2.57 µM; in [6] it was 0.589 µM. For the same molecule, the TGI was 1.14 µM in experiment [7], 0.359 µM in experiment [8], 3.25 µM in [9] and 2.31 µM in experiment [10].
As to `CN(C)C(=O)C1CCN(Cc2c[nH]c3ccccc23)CC1`, the TGI in experiment [1], in experiment [2], in experiment [3], in experiment [4], in experiment [5] and in [6] was greater than 100 µM throughout. Further, the TGI in experiment [7], in experiment [8], in experiment [9] and in experiment [10] was greater than 100 µM throughout.
Consider `O=C1C(Cl)=C(N2CCN(c3ccccn3)CC2)C(=O)c2ncccc21`, for which the TGI came out at 5.52 µM in experiment [1]; 4.63 µM in experiment [2]; 3.31 µM in experiment [3]; 6.63 µM in [4]; 3.39 µM in experiment [5]; 8.17 µM in experiment [6]. Besides, the TGI in experiment [7] came out at 4.02 µM; in experiment [8] it was 4.22 µM; in [9], 25 µM; in experiment [10], 19.8 µM.
For `CCOC(=O)N1[C@@H]2CCC[C@@H]2C(=O)[C@@H]2CCC[C@@H]21`, the TGI in experiment [1], in experiment [2], in experiment [3], in [4], in [5] and in experiment [6] was greater than 100 µM each time. In addition, the TGI in experiment [7], in experiment [8], in experiment [9] and in experiment [10] was greater than 100 µM throughout.
Regarding `COc1cc(C23OCC(Cc4cc5c(cc42)OCO5)C3CO)cc(OC)c1OC` (stereo not given), the TGI in experiment [1] is greater than 100 µM; in [2] it was greater than 100 µM; in experiment [3], greater than 100 µM; in [4] it was greater than 100 µM; in [5] it was greater than 84.4 µM; in [6], greater than 100 µM. Moreover, the TGI in [7], in experiment [8], in experiment [9] and in experiment [10] was greater than 100 µM each time.
With `CN(C)c1ccc(C2ON=C(c3ccccc3)N2C23CC4CC(CC(C4)C2)C3)cc1` (stereo not given), the TGI in experiment [1], in experiment [2], in experiment [3], in experiment [4], in [5] and in [6] was greater than 10 µM each time. Besides, the TGI in experiment [7], in experiment [8], in [9] and in experiment [10] was greater than 10 µM in each case.
